Antiadhesive effect data for eleven substances are collected here from patent US11484564B2, “Adhesion prevention material” (priority 2017, dated 2022).

This test concerns flexor digitorum profundus tendon. Description: Evaluation of antiadhesive effect in cut and sutured flexor digitorum profundus tendon (adhesion score, 3 portions). The note with it: 0.15 mL, 2 weeks. Format: in vivo, rabbit. How it is done:
As supplied animals, 13-week old rabbits (Kbl: JW, male) were used. By the same procedure as in the above-described Test Example 1, anesthesia, hair removal, holding, and sterilization were performed. Next, the skin covering a metatarsus of the left hind limb was incised longitudinally under anesthesia to expose flexor tendons. Among the exposed flexor tendons, a flexor digitorum profundus tendon was cut by sharp dissection using a scalpel. Then, the dissected region of the flexor digitorum profundus tendon was sutured with a suture (trade name: “6-0 Prolene”, Ethicon, Inc.) by a modified Kessler technique, hemostasis and washing with physiological saline were performed. Then, test samples were administered to the exposed flexor digitorum profundus tendon and its surroundings. The test samples were administered as follows. […] Then, the incised portion was sutured with a suture (trade name: “5-0 suture with needle for clinical use”, Matsuda Ika Kogyo CO., LTD.). The rabbit was fed with an e-collar around the neck to prevent self-injurious behavior. At 2 weeks after administration of the test sample, the rabbit was painlessly sacrificed by an overdose of Somnopentil (a trade name “pentobarbital sodium”, Kyoritsu Seiyaku Corporation) by auricular vein administration. The operated site was incised again, and degrees of adhesion were evaluated according to the criteria with respect to the following three portions: between flexor digitorum profundus tendon and gliding floor, between flexor digitorum profundus tendon and flexor digitorum superficialis tendon, and between flexor digitorum profundus tendon and other surrounding tissues. The total of the scores of the three portions was designated as a score for the individual. <Evaluation Criteria> 0: No adhesion 1: Easily dissectable from surrounding tissues by blunt dissection 2: Dissectable from surrounding tissues by blunt dissection 3: Dissection from surrounding tissues requires slightly sharp dissection 4: Dissection from surrounding tissues requires completely sharp dissection

[1] abbreviates: Test Example 7, peptide 30% by weight with gel powder (B) 20% by weight.
[2] abbreviates: Test Example 9, tripeptide 30% by weight with gel powder (B) 20% by weight.
[3] abbreviates: Test Example 5, peptide 30% by weight with crosslinked-gelatin sponge gel powder (B) 20% by weight.
Where [4] appears, read: Test Example 6, peptide 30% by weight with gel powder (B) 20% by weight.

“Also recorded” adds a separate entry of the source. Non-standard residues stand in square brackets, D forms with d. No end group written: not given here. Hyp = O=C(O)[C@@H]1C[C@@H](O)CN1

For (Gly-Pro-Hyp)5 [oligopeptide 1], the antiadhesive effect result under setting [1] was “antiadhesive effects were observed”.
On the same count and under the same terms, the same measure for (Gly-Pro-Hyp)10 [polypeptide 1]: “antiadhesive effects were observed; also recorded: lower than those in tripeptide 4 and oligopeptide 1”.
With Arg-Pro-[Hyp] [tripeptide 7], the antiadhesive effect entry under setting [2] is “antiadhesive effects were observed”.
Same read-out and setting: for Asn-Pro-[Hyp] [tripeptide 6] the value was “antiadhesive effects were observed”.
Take “Gly-Ala-[Hyp] [tripeptide 2, reference compound]”: the antiadhesive effect result under setting [3] was “the antiadhesive effect was inferior to the case in which peptide mixture 1 was used”.
“Gly-Pro [dipeptide 2, reference compound]”: the antiadhesive effect result under setting [4] is recorded as “the antiadhesive effect was decreased”.
For the substance “Gly-Pro-Ala [tripeptide 3, reference compound]”, under setting [3], the antiadhesive effect entry is “the antiadhesive effect was inferior to the case in which peptide mixture 1 was used”.
On to Gly-Pro-[Hyp] [tripeptide 4], for which the antiadhesive effect entry under setting [3] is “the same antiadhesive effect as in the case in which both peptide mixture 1 and the crosslinked-gelatin sponge gel were administered was observed”; the antiadhesive effect result under setting [4] was “contribute to the antiadhesive effect”; the antiadhesive effect result under setting [1] is recorded as “antiadhesive effects were observed”; the antiadhesive effect entry under setting [2] is listed as “antiadhesive effects were observed”.
Consider Ile-Pro-[Hyp] [tripeptide 5], for which, under setting [2], the antiadhesive effect entry is “antiadhesive effects were observed”.
Turning to Pro-Hyp [dipeptide 1], the antiadhesive effect entry under setting [4] is “contribute to the antiadhesive effect”.
For the substance Tyr-Pro-[Hyp] [tripeptide 8], under setting [2], the antiadhesive effect result was “antiadhesive effects were observed”.
